Reference: patent publication US20140348850A1, “METHOD FOR REDUCING BLOOD PRESSURE USING INHIBITORS OF PLASMA KALLIKREIN” (JOSLIN DIABETES CENTER, priority 2008, published 2014)

Legend:
[1] = tested on: Ang-II-induced hypertension; assay: BP-lowering effect in Ang-II-induced rat hypertension model (telemetry); type: in vivo; conditions: rats infused with Ang-II 300 ng/kg/min; ASP-440 16 ƒg/kg/hr by subcutaneous osmotic pump; vs Ang-II alone
Excerpt: FIG. 1 is a graph showing the time course of systolic blood pressure (SBP) measured using telemetry in rats infused with Ang-II in the absence or presence of ASP-440. * and † indicate p<0.05 for Day 0 vs Ang-II alone (n=4) and Ang-II+ASP-440 (n=7), respectively. ‡ indicates p<0.05 for Ang-II alone vs Ang-Il^+ ASP-440. NS indicates statistically non-significant change from Day 0.
Rats were infused continuously with Ang-II, and concurrently with either ASP-440 or vehicle control. Treatments were achieved by the use of subcutaneous implantation of two sets of Alzet mini-osmotic pumps (DURECT corporation, Cupertino Calif.), one containing Ang-II, the other containing either ASP-440 or vehicle control. Angll (EMD Chemicals Inc, La Jolla, Calif.) was delivered at 300 ng/kg/min. ASP-440 was delivered at 16 ƒg/kg/hr, and control pumps were filled with vehicle (10% polyethylene glycol, 90% phosphate-buffered saline).
Blood pressure measurements by telemetry were performed using PA-C40 transmitters (Data Sciences International, St. Paul, Minn.). […] Rats were housed individually on a receiver pad and blood pressure was monitored continuously. […] Baseline readings (Day 0) were obtained 48 hours after catheter implantation, following implantation of Alzet mini-pumps.

[2] = tested on: retinal vasculature of diabetic rats; assay: Retinal vessel diameters, mean circulation time and retinal blood flow in STZ-diabetic rats (video fluorescein angiography); type: in vivo, Sprague Dawley rats
Protocol: FIGS. 2A and 2B are graphs showing normalized retinal blood flow (FIG. 2A) and increased blood vessel diameter (FIG. 2B) following ASP-440 administration in diabetic rats.
We examined the effect of ASP-440 on retinal vessel diameters, mean circulation times (MCT), and retinal blood flow (RBF) in rats with diabetes. Diabetes was induced in Sprague Dawley rats with an intraperitoneal injection of 55 mg/kg of streptozotocin (STZ) (Sigma, St. Louis, Mo., USA) in 10 mmol/l citrate buffer, pH 4.5 after a 12 h fast. Diabetes was confirmed with blood glucose measurements (>14 mmol/l) 24 h after STZ injection. The rats were housed under standard conditions with free access to water and standard food. Two weeks after diabetes onset rats were implanted with a subcutaneous osmotic model 2002 Alzet pump containing either 12 mg/ml ASP-440 or saline vehicle. Rats were infused for 2 weeks at a rate of 0.5 μg/hr. Retinal vessel diameters and MCT was measured after 4 weeks of total diabetes duration and RBF was calculated as described by Horio et al. (Diabetologia 47:113-23, 2004).
To make the measurements described above, the following procedure was used. […] The recorded fluorescein angiograms were digitized on a frame-by-frame basis and analyzed densitometrically to determine retinal vessel diameters and retinal mean circulation times (MCTs), as described by Horio et al. (supra). […] Vessel diameters in units of pixels were determined during peak fluorescein arterial and venous filling times at the defined vessel sample sites using a boundary-crossing algorithm. The average diameter for each vessel was measured for each sample site. […] At the fixed vessel sites, the average vessel fluorescence within a sample area defined by the vessel width was measured on a frame-by-frame basis to generate temporal fluorescence intensity or dye dilution curves. The resultant artery and vein fluorescence data were fit to a log normal distribution function from which average arterial and venous circulation times were calculated. […]

[3] = 2 weeks subcutaneous pump infusion (12 mg/ml ASP-440), vs diabetic rats receiving vehicle

N=C(N)c1ccc(CNC(=O)c2cnn(Cc3ccccc3)c2)cc1 [ASP-440, 1-Benzyl-1H-pyrazole-4-carboxylic acid 4-carbamimidoyl-benzylamide]
blood pressure (systolic, telemetry) [1]: capable of reducing blood pressure | retinal blood flow (RBF) [2, 3]: increased RBF | retinal mean circulation time (MCT) [2, 3]: shortened MCT | retinal artery and vein diameters ([2]; 2 weeks subcutaneous pump infusion, vs nondiabetic rats and saline-treated diabetic rats): increased retinal artery and vein diameters
